Experimental data taken from patent publication US9227971B2, “Pyrazolo[1,5-a]pyrimidine compounds as mTOR inhibitors” (Merck Sharp & Dohme Corp., priority 2010, dated 2016).

How the values were obtained:
[1] = tested on: phosphorylated AKT Ser473 (pAKT S473), mTORC2 activity, PC3 cells; experiment: mTOR target engagement assay, immunofluorescent cell-based, pAKT S473 readout (mTORC2 activity); conditions: Homo sapiens, PC-3, Table 3-1; PC3 cells
How it was run: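 After blocking, cells were stained overnight at 4 °C with anti-pAKT S473 antibody, then a fluorescent secondary; inhibition was read as reduced fluorescence intensity.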

[2] = tested on: phosphorylated 4E-BP1 Thr37/46 (p4E-BP1 Thr37/46), mTORC1 activity, PC3 cells; experiment: mTOR target engagement assay, immunofluorescent cell-based, p4E-BP1 Thr37/46 readout (mTORC1 activity); conditions: Homo sapiens, PC-3, Table 3-1; PC3 cells; read-out: p4E-BP1 Thr37/46 IC50
How it was run: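 Cell-based immunofluorescence in PC3 cells: serially diluted compounds (0.25% DMSO, 5% FBS) applied for ninety minutes at 37° C before fixation and overnight 4° C staining of p4E-BP1 Thr37/46. Untreated DMSO wells set maximal phosphorylation; IC50 obtained by logistic fitting.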

Structure (SMILES)	IC50 [1] [nM]	IC50 [2] [nM]
CN(C)c1nnc(C(=O)N2[C@@H]3CC[C@H]2C[C@H](c2nc4c(-c5ccc(-c6ccccc6)nc5)cnn4c(N)c2S(C)(=O)=O)C3)[nH]1 [Compound 3.93, ((1R,3s,5S)-3-(7-amino-6-(methylsulfonyl)-3-(6-phenylpyridin-3-yl)pyrazolo[1,5-a]pyrimidin-5-yl)-8-azabicyclo[3.2.1]octan-8-yl)(5-(dimethylamino)-4H-1,2,4-triazol-3-yl)methanone]	100 to 1000	100 to 1000
CS(=O)(=O)c1c([C@@H]2C[C@H]3CC[C@@H](C2)N3C(=O)c2cn[nH]c2O)nc2c(-c3ccc(-c4ccccc4)nc3)cnn2c1N [Compound 3.94, ((1R,3s,5S)-3-(7-amino-6-(methylsulfonyl)-3-(6-phenylpyridin-3-yl)pyrazolo[1,5-a]pyrimidin-5-yl)-8-azabicyclo[3.2.1]octan-8-yl)(5-hydroxy-1H-pyrazol-4-yl)methanone]	100 to 1000	100 to 1000
CS(=O)(=O)c1c([C@@H]2C[C@H]3CC[C@@H](C2)N3C(=O)c2nnc[nH]2)nc2c(-c3cnn(-c4ccccc4)c3)cnn2c1N [Compound 3.97, ((1R,3s,5S)-3-(7-amino-6-(methylsulfonyl)-3-(1-phenyl-1H-pyrazol-4-yl)pyrazolo[1,5-a]pyrimidin-5-yl)-8-azabicyclo[3.2.1]octan-8-yl)(4H-1,2,4-triazol-3-yl)methanone]	1 to 100	1 to 100
CS(=O)(=O)c1c([C@@H]2C[C@H]3CC[C@@H](C2)N3C(=O)c2nc(N)n[nH]2)nc2c(-c3ccc(-c4ccccc4)nc3)cnn2c1N [Compound 3.98, (3-amino-1H-1,2,4-triazol-5-yl)((1R,3s,5S)-3-(7-amino-6-(methylsulfonyl)-3-(6-phenylpyridin-3-yl)pyrazolo[1,5-a]pyrimidin-5-yl)-8-azabicyclo[3.2.1]octan-8-yl)methanone]	1 to 100	1 to 100
CS(=O)(=O)c1c([C@@H]2C[C@H]3CC[C@@H](C2)N3C(=O)c2nc(C(F)(F)F)n[nH]2)nc2c(-c3ccc(-c4ccccc4)nc3)cnn2c1N [Compound 3.99, ((1R,3s,5S)-3-(7-amino-6-(methylsulfonyl)-3-(6-phenylpyridin-3-yl)pyrazolo[1,5-a]pyrimidin-5-yl)-8-azabicyclo[3.2.1]octan-8-yl)(3-(trifluoromethyl)-1H-1,2,4-triazol-5-yl)methanone]	1000 to 10000	1000 to 10000
COc1ccc(-c2ccc(-c3cnn4c(N)c(S(C)(=O)=O)c([C@@H]5C[C@H]6CC[C@@H](C5)N6C(=O)c5nnc(N)[nH]5)nc34)cn2)cc1F [Compound 3.100, ((1R,3s,5S)-3-(7-amino-3-(6-(3-fluoro-4-methoxyphenyl)pyridin-3-yl)-6-(methylsulfonyl)pyrazolo[1,5-a]pyrimidin-5-yl)-8-azabicyclo[3.2.1]octan-8-yl)(5-amino-4H-1,2,4-triazol-3-yl)methanone]	1 to 100	1 to 100
CS(=O)(=O)c1c([C@@H]2C[C@H]3CC[C@@H](C2)N3C(=O)c2nnc[nH]2)nc2c(-c3ccc(-c4ccccn4)nc3)cnn2c1N [Compound 3.102, ((1R,3s,5S)-3-(3-(2,2′-bipyridin-5-yl)-7-amino-6-(methylsulfonyl)pyrazolo[1,5-a]pyrimidin-5-yl)-8-azabicyclo[3.2.1]octan-8-yl)(4H-1,2,4-triazol-3-yl)methanone]	1 to 100	1 to 100
CS(=O)(=O)c1c([C@@H]2C[C@H]3CC[C@@H](C2)N3C(=O)c2nnc[nH]2)nc2c(-c3ccc(-c4ccccc4F)nc3)cnn2c1N [Compound 3.104, ((1R,3s,5S)-3-(7-amino-3-(6-(2-fluorophenyl)pyridin-3-yl)-6-(methylsulfonyl)pyrazolo[1,5-a]pyrimidin-5-yl)-8-azabicyclo[3.2.1]octan-8-yl)(4H-1,2,4-triazol-3-yl)methanone]	1 to 100	1 to 100
CS(=O)(=O)c1c([C@@H]2C[C@H]3CC[C@@H](C2)N3C(=O)c2nnc[nH]2)nc2c(-c3ccc(-c4ccc(F)cc4)nc3)cnn2c1N [Compound 3.105, ((1R,3s,5S)-3-(7-amino-3-(6-(4-fluorophenyl)pyridin-3-yl)-6-(methylsulfonyl)pyrazolo[1,5-a]pyrimidin-5-yl)-8-azabicyclo[3.2.1]octan-8-yl)(4H-1,2,4-triazol-3-yl)methanone]	1 to 100	1 to 100
Cn1cc(-c2ccc(-c3cnn4c(N)c(S(C)(=O)=O)c([C@@H]5C[C@H]6CC[C@@H](C5)N6C(=O)c5nnc[nH]5)nc34)cn2)cn1 [Compound 3.106, ((1R,3s,5S)-3-(7-amino-3-(6-(1-methyl-1H-pyrazol-4-yl)pyridin-3-yl)-6-(methylsulfonyl)pyrazolo[1,5-a]pyrimidin-5-yl)-8-azabicyclo[3.2.1]octan-8-yl)(4H-1,2,4-triazol-3-yl)methanone]	1 to 100	1 to 100
CS(=O)(=O)c1c([C@@H]2C[C@H]3CC[C@@H](C2)N3C(=O)c2nnc[nH]2)nc2c(-c3ccc(-c4c(F)cccc4F)nc3)cnn2c1N [Compound 3.107, ((1R,3s,5S)-3-(7-amino-3-(6-(2,6-difluorophenyl)pyridin-3-yl)-6-(methylsulfonyl)pyrazolo[1,5-a]pyrimidin-5-yl)-8-azabicyclo[3.2.1]octan-8-yl)(4H-1,2,4-triazol-3-yl)methanone]	1 to 100	1 to 100
CS(=O)(=O)c1c([C@@H]2C[C@H]3CC[C@@H](C2)N3C(=O)c2nnc[nH]2)nc2c(-c3ccc(-c4ccc(F)cc4F)nc3)cnn2c1N [Compound 3.108, ((1R,3s,5S)-3-(7-amino-3-(6-(2,4-difluorophenyl)pyridin-3-yl)-6-(methylsulfonyl)pyrazolo[1,5-a]pyrimidin-5-yl)-8-azabicyclo[3.2.1]octan-8-yl)(4H-1,2,4-triazol-3-yl)methanone]	1 to 100	1 to 100
CS(=O)(=O)c1c([C@@H]2C[C@H]3CC[C@@H](C2)N3C(=O)c2nnc[nH]2)nc2c(-c3ccc(-c4cn[nH]c4)nc3)cnn2c1N [Compound 3.109, ((1R,3s,5S)-3-(3-(6-(1H-pyrazol-4-yl)pyridin-3-yl)-7-amino-6-(methylsulfonyl)pyrazolo[1,5-a]pyrimidin-5-yl)-8-azabicyclo[3.2.1]octan-8-yl)(4H-1,2,4-triazol-3-yl)methanone]	1000 to 10000	1000 to 10000
CS(=O)(=O)c1c([C@@H]2C[C@H]3CC[C@@H](C2)N3C(=O)c2nnc[nH]2)nc2c(-c3ccc(-c4ccc(C(F)(F)F)cc4F)nc3)cnn2c1N [Compound 3.110, ((1R,3s,5S)-3-(7-amino-3-(6-(2-fluoro-4-(trifluoromethyl)phenyl)pyridin-3-yl)-6-(methylsulfonyl)pyrazolo[1,5-a]pyrimidin-5-yl)-8-azabicyclo[3.2.1]octan-8-yl)(4H-1,2,4-triazol-3-yl)methanone]	100 to 1000	1000 to 10000
Cn1cc(-c2cnn3c(N)c(S(C)(=O)=O)c([C@@H]4C[C@H]5CC[C@@H](C4)N5C(=O)c4nnc[nH]4)nc23)cn1 [Compound 3.111, ((1R,3s,5S)-3-(7-amino-3-(1-methyl-1H-pyrazol-4-yl)-6-(methylsulfonyl)pyrazolo[1,5-a]pyrimidin-5-yl)-8-azabicyclo[3.2.1]octan-8-yl)(4H-1,2,4-triazol-3-yl)methanone]	1000 to 10000	1000 to 10000
Cn1cc(-c2cnn3c(N)c(S(C)(=O)=O)c([C@@H]4C[C@H]5CC[C@@H](C4)N5C(=O)CO)nc23)cn1 [Compound 3.112, 1-((1R,3s,5S)-3-(7-amino-3-(1-methyl-1H-pyrazol-4-yl)-6-(methylsulfonyl)pyrazolo[1,5-a]pyrimidin-5-yl)-8-azabicyclo[3.2.1]octan-8-yl)-2-hydroxyethanone]	> 10000	1000 to 10000
CS(=O)(=O)c1c([C@@H]2C[C@H]3CC[C@@H](C2)N3C(=O)c2nnc[nH]2)nc2c(-c3cn[nH]c3)cnn2c1N [Compound 3.113, ((1R,3s,5S)-3-(7-amino-6-(methylsulfonyl)-3-(1H-pyrazol-4-yl)pyrazolo[1,5-a]pyrimidin-5-yl)-8-azabicyclo[3.2.1]octan-8-yl)(4H-1,2,4-triazol-3-yl)methanone]	> 10000	1000 to 10000
CS(=O)(=O)c1c([C@@H]2C[C@H]3CC[C@@H](C2)N3C(=O)CO)nc2c(-c3cn[nH]c3)cnn2c1N [Compound 3.114, 1-((1R,3s,5S)-3-(7-amino-6-(methylsulfonyl)-3-(1H-pyrazol-4-yl)pyrazolo[1,5-a]pyrimidin-5-yl)-8-azabicyclo[3.2.1]octan-8-yl)-1-hydroxyethanone]	> 10000	> 10000
Cc1nnc(C(=O)N2[C@@H]3CC[C@H]2C[C@H](c2nc4c(-c5cn[nH]c5)cnn4c(N)c2S(C)(=O)=O)C3)[nH]1 [Compound 3.115, ((1R,3s,5S)-3-(7-amino-6-(methylsulfonyl)-3-(1H-pyrazol-4-yl)pyrazolo[1,5-a]pyrimidin-5-yl)-8-azabicyclo[3.2.1]octan-8-yl)(5-methyl-4H-1,2,4-triazol-3-yl)methanone]	> 10000	> 10000
CS(=O)(=O)c1c([C@@H]2C[C@H]3CC[C@@H](C2)N3C(=O)c2ccn[nH]2)nc2c(-c3cn[nH]c3)cnn2c1N [Compound 3.117, ((1R,3a,4S)-3-(7-amino-6-(methylsulfonyl)-3-(1H-pyrazol-4-yl)pyrazolo[1,5-a]pyrimidin-5-yl)-8-azabicyclo[3.2.1]octan-8-yl)(1H-pyrazol-5-yl)methanone]	> 10000	> 10000
